Target: T1, chimeric human H3 receptor (Homo sapiens, UniProt Q9Y5N1)
T1 construct: made in house; host or cells: Sf9 insect cells (baculovirus); P2 membrane preparation
Assay: Chimeric human H3 receptor GTP binding assay (agonist-stimulated GTP-gamma35S binding, Example 7)
Assay type: biochemical
Method in brief: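 Sf9 membranes co-expressing chimeric human H3 receptor and heterotrimeric G-protein, 35 μg/tube, in pH 7.4 Tris buffer with 10 μM GDP. Test compounds (10^−10–10^−6 M) competed against 1 μM histamine, […] GTP-gamma35S, 60 min at room temperature. Filter-bound radioactivity counted; IC50 converted to Ki by Cheng-Prusoff. Agonism/inverse agonism tested without histamine (EC50).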

[1] = Table II "Ki", symbol *, assay of Example 7
[2] = Table II, "*" = Ki in assay of Example 7 less than 1 micromolar
[3] = assay of Example 7, "*" in Ki of Table II

T1 sequence (Q9Y5N1 with tags, fused parts or gaps): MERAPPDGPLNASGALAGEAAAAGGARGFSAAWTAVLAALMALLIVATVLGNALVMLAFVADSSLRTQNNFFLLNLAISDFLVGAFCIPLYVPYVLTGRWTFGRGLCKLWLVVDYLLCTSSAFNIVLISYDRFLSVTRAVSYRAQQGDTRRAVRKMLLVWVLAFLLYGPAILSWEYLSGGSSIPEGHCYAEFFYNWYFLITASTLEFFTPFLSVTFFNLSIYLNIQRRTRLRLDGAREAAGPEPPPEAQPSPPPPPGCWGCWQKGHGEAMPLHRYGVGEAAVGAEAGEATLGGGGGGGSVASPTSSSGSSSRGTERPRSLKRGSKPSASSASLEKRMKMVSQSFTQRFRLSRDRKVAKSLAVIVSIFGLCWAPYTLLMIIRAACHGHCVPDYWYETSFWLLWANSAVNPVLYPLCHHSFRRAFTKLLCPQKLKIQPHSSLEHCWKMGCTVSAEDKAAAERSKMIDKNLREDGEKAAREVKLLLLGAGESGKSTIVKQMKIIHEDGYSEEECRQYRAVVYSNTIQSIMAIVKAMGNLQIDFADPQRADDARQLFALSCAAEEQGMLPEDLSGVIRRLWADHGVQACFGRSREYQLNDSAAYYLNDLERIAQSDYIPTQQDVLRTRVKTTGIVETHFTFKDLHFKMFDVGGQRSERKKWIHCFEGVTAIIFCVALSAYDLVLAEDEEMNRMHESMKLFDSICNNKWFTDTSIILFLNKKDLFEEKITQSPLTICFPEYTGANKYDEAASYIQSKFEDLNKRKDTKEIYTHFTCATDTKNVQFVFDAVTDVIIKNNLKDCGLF

SMILES	Ki [1]	Ki [2]	further results
N#Cc1ccc(-n2cc3c(n2)CCN(CC(=O)N2CCN(C4CCC4)CC2)C3)nc1 [Compound 687, 6-{5-[2-(4-cyclobutylpiperazin-1-yl)-2-oxoethyl]-4,5,6,7-tetrahydro-2H-pyrazolo[4,3-c]pyridin-2-yl}nicotinonitrile]	–	–	Ki (Table II, assay of Example 7): < 1 µM
Cc1c2c(nn1-c1ccc(Br)cn1)CCN(CC(=O)N1CCN(C3CCC3)CC1)C2 [Compound 273, 2-(5-bromopyridin-2-yl)-5-[2-(4-cyclobutylpiperazin-1-yl)-2-oxoethyl]-3-methyl-4,5,6,7-tetrahydro-2H-pyrazolo[4,3-c]pyridine]	–	< 1 µM	–
COc1ccc(-c2ccc3c(c2)CCN(CC(=O)N2CCN(C(C)C)CC2)C3)cc1OC [Compound 527, 6-(3,4-dimethoxyphenyl)-2-[2-(4-isopropylpiperazin-1-yl)-2-oxoethyl]-1,2,3,4-tetrahydroisoquinoline]	< 1 µM	–	–
O=C(CN1CCc2nn(-c3cncc(Cl)n3)cc2C1)N1CCN(C2CCC2)CC1 [Compound 267, 2-(6-chloropyrazin-2-yl)-5-[2-(4-cyclobutylpiperazin-1-yl)-2-oxoethyl]-4,5,6,7-tetrahydro-2H-pyrazolo[4,3-c]pyridine]	–	< 1 µM	–
O=C(CN1CCc2nc(N3CCCC(C(F)(F)F)C3)ccc2C1)N1CCN(C2CCC2)CC1 (stereo not shown) [Compound 682, 6-[2-(4-cyclobutylpiperazin-1-yl)-2-oxoethyl]-2-[3-(trifluoromethyl)piperidin-1-yl]-5,6,7,8-tetrahydro-1,6-naphthyridine]	–	–	Ki (Table II, assay of Example 7): < 1 µM
O=C(CN1CCc2cc(N3CCOCC3)nnc2C1)N1CCN(C2CCC2)CC1 [Compound 220, 7-[2-(4-cyclobutylpiperazin-1-yl)-2-oxoethyl]-3-morpholin-4-yl-5,6,7,8-tetrahydropyrido[3,4-c]pyridazine]	–	< 1 µM	–
CC(C)c1ccc(-c2nc3c(s2)CN(CC(=O)N2CCN(C4CCC4)CC2)CC3)cc1 [Compound 307, 5-[2-(4-cyclobutylpiperazin-1-yl)-2-oxoethyl]-2-(4-isopropylphenyl)-4,5,6,7-tetrahydro[1,3]thiazolo [5,4-c]pyridine]	–	–	Ki [3]: < 1 µM
C[C@H]1CN(C(=O)CN2CCc3cc(-c4cncnc4)ccc3C2)CCN1C1CCCCC1 [Compound 616, 2-{2-[(3S)-4-cyclohexyl-3-methylpiperazin-1-yl]-2-oxoethyl}-6-pyrimidin-5-yl-1,2,3,4-tetrahydroisoquinoline]	< 1 µM	–	–
O=C(NC1CCC1)c1ccc2c(n1)CCN(CC(=O)N1CCN(C3CCC3)CC1)C2 [Compound 125, N-cyclobutyl-6-[2-(4-cyclobutylpiperazin-1-yl)-2-oxoethyl]-5,6,7,8-tetrahydro-1,6-naphthyridine-2-carboxamide]	–	< 1 µM	–
O=C(CN1CCc2cc(-c3ccc4ccccc4n3)ccc2C1)N1CCN(C2CCC2)CC1 [Compound 634, 2-{2-[2-(4-cyclobutylpiperazin-1-yl)-2-oxoethyl]-1,2,3,4-tetrahydroisoquinolin-6-yl}quinoline]	< 1 µM	–	–
O=C(CN1CCc2cc(-c3ccc(Cl)cn3)ccc2C1)N1CCN(C2CCC2)CC1 [Compound 631, 6-(5-chloropyridin-2-yl)-2-[2-(4-cyclobutylpiperazin-1-yl)-2-oxoethyl]-1,2,3,4-tetrahydroisoquinoline]	< 1 µM	–	–
COCCC1CCCN(c2ccc3c(n2)CCN(CC(=O)N2CCN(C4CCC4)CC2)C3)C1 (stereo not shown) [Compound 674, 6-[2-(4-cyclobutylpiperazin-1-yl)-2-oxoethyl]-2-[3-(2-methoxyethyl)piperidin-1-yl]-5,6,7,8-tetrahydro-1,6-naphthyridine]	< 1 µM	–	–
Cc1ccc(-c2nc3c(s2)CN(CC(=O)N2CCN(C4CCC4)CC2)CC3)cc1C [Compound 308, 5-[2-(4-cyclobutylpiperazin-1-yl)-2-oxoethyl]-2-(3,4-dimethylphenyl)-4,5,6,7-tetrahydro[1,3]thiazolo [5,4-c]pyridine]	–	–	Ki [3]: < 1 µM
N#Cc1ccc2c(c1)CCN(CC(=O)N1CCN(C3CCC3)CC1)C2 [Compound 69, 2-[2-(4-cyclobutylpiperazin-1-yl)-2-oxoethyl]-1,2,3,4-tetrahydroisoquinoline-6-carbonitrile]	–	–	Ki (Table I, P2 membranes of Sf9 cells, 1 μM histamine as agonist, Ki from IC50 by Cheng-Prusoff): < 1 µM
O=C(CN1CCc2nn(-c3ccc4nncn4n3)cc2C1)N1CCN(C2CCC2)CC1 [Compound 688, 6-{5-[2-(4-cyclobutylpiperazin-1-yl)-2-oxoethyl]-4,5,6,7-tetrahydro-2H-pyrazolo[4,3-c]pyridin-2-yl}[1,2,4]triazolo[4,3-b]pyridazine]	–	–	Ki (Table II, assay of Example 7): < 1 µM
N#Cc1ccc(-c2ncc3c(n2)CCN(CC(=O)N2CCN(C4CCC4)CC2)C3)cc1 [Compound 683, 4-{6-[2-(4-cyclobutylpiperazin-1-yl)-2-oxoethyl]-5,6,7,8-tetrahydropyrido[4,3-d]pyrimidin-2-yl]benzonitrile]	–	–	Ki (Table II, assay of Example 7): < 1 µM
CC(=O)c1ccc(-n2ncc3c2CCN(CC(=O)N2CCN(C4CCC4)CC2)C3)cc1 [Compound 92, 1-(4-{5-[2-(4-cyclobutylpiperazin-1-yl)-2-oxoethyl]-4,5,6,7-tetrahydro-1H-pyrazolo[4,3-c]pyridin-1-yl}phenyl)ethanone]	–	< 1 µM	–
O=C(CN1CCc2nc(-c3cccc(F)c3F)sc2C1)N1CCN(C2CCC2)CC1 [Compound 356, 5-[2-(4-cyclobutylpiperazin-1-yl)-2-oxoethyl]-2-(2,3-difluorophenyl)-4,5,6,7-tetrahydro[1,3]thiazolo [5,4-c]pyridine]	–	–	Ki [3]: < 1 µM

Second part, led by results:

Ki [1]	Ki [2]	SMILES	further results
< 1 µM	–	COc1ccc(-c2ccc3c(c2)CCN(CC(=O)N2CCN(C4CCC4)CC2)C3)cc1F [Compound 502, 2-[2-(4-cyclobutylpiperazin-1-yl)-2-oxoethyl]-6-(3-fluoro-4-methoxyphenyl)-1,2,3,4-tetrahydroisoquinoline]	–
< 1 µM	–	CN(C)Cc1ccccc1-c1ccc2c(c1)CCN(CC(=O)N1CCN(C3CCC3)CC1)C2 [Compound 640, 1-(2-{2-[2-(4-cyclobutylpiperazin-1-yl)-2-oxoethyl]-1,2,3,4-tetrahydroisoquinolin-6-yl}phenyl)-N,N-dimethylmethanamine]	–
–	< 1 µM	O=C(CN1CCc2cc(-n3nccn3)ccc2C1)N1CCN(C2CCC2)CC1 [Compound 209, 2-[2-(4-cyclobutylpiperazin-1-yl)-2-oxoethyl]-6-(2H-1,2,3-triazol-2-yl)-1,2,3,4-tetrahydroisoquinoline]	–
–	< 1 µM	CC1CCC[C@H]2CN(C(=O)CN3CCc4nc(Cl)ccc4C3)CCN12 (stereo in doubt) [Compound 174, 2-chloro-6-[2-(6-methyloctahydro-2H-pyrido[1,2-a]pyrazin-2-yl)-2-oxoethyl]-5,6,7,8-tetrahydro-1,6-naphthyridine]	–
–	< 1 µM	NC(=O)c1cnn(-c2ccc3c(c2)CCN(CC(=O)N2CCN(C4CCC4)CC2)C3)c1 [Compound 243, 1-{2-[2-(4-cyclobutylpiperazin-1-yl)-2-oxoethyl]-1,2,3,4-tetrahydroisoquinolin-6-yl}-1H-pyrazole-4-carboxamide]	–
–	< 1 µM	O=C(CN1CCc2c(cnn2-c2ccc(Br)cc2)C1)N1CCN(C2CCC2)CC1 [Compound 90, 1-(4-bromophenyl)-5-[2-(4-cyclobutylpiperazin-1-yl)-2-oxoethyl]-4,5,6,7-tetrahydro-1H-pyrazolo[4,3-c]pyridine]	–
< 1 µM	–	COC[C@@H]1CCCN1c1ccc2c(n1)CCN(CC(=O)N1CCN(C3CCC3)CC1)C2 [Compound 678, 6-[2-(4-cyclobutylpiperazin-1-yl)-2-oxoethyl]-2-[(2S)-2-(methoxymethyl)pyrrolidin-1-yl]-5,6,7,8-tetrahydro-1,6-naphthyridine]	–

Source: US20110082130A1 (LIGAND PHARMACEUTICALS, INC., priority 2006, published 2011)
